Source: patent publication US5599793A, “Antithromobotic agents” (Eli Lilly and Company, priority 1995, dated 1997)

Assays:
[1] = biological target: T1, factor Xa (Homo sapiens, UniProt P00742); assay: Serine protease selectivity, chromogenic substrate (Kass), factor Xa; format: biochemical; conditions: substrate N-Benzoyl-Ile-Glu-Gly-Arg-p-nitroanilide
T1 construct: Human factors X, Xa, IXa, XIa, and XIIa are purchased; purchased Enzyme Research Laboratories, South Bend, Ind

[2] = biological target: T2, Trypsin (Bos taurus, UniProt P00760); assay: Serine protease selectivity, chromogenic substrate (Kass), trypsin; format: biochemical, bovine; conditions: substrate N-Benzoyl-Phe-Val-Arg-p-nitroanilide
T2 construct: Bovine trypsin is purchased; purchased Worthington Biochemicals, Freehold, N.J
T2 sequence (P00760 24-246): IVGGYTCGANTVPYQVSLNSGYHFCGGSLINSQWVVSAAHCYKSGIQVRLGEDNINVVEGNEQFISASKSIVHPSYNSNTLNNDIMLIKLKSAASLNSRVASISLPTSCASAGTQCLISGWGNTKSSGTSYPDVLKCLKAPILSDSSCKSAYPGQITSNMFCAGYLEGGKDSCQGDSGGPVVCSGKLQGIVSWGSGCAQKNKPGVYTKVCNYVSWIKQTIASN

[3] = biological target: T3, t-PA (Homo sapiens, UniProt P00750); assay: Serine protease selectivity, chromogenic substrate (Kass), t-PA; format: biochemical; conditions: substrate H-D-Ile-Pro-Arg-p-nitroanilide
T3 construct: purchased American Diagnostica, Greenwich, Conn

[4] = tested on: Human plasma; assay: Human plasma anticoagulation, thrombin time (TT); format: biochemical; conditions: concentration required to double the thrombin time, linear extrapolation
[5] = tested on: Human plasma; assay: Human plasma anticoagulation, activated partial thromboplastin time (APTT); format: biochemical; conditions: concentration required to double the APTT, linear extrapolation

T1 sequence (P00742 235-488 limits assumed): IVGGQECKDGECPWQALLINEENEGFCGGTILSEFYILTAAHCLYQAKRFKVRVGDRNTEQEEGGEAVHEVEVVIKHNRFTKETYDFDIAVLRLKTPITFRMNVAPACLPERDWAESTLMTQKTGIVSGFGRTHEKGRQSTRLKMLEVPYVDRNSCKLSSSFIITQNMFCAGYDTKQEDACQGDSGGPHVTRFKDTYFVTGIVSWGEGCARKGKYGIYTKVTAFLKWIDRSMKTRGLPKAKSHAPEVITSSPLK
T1 sequence (P00742 41-179 partner limits assumed): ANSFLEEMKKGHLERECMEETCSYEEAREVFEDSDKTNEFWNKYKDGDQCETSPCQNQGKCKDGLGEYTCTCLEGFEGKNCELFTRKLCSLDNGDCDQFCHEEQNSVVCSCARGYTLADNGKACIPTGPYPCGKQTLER
T3 sequence (P00750 36-562): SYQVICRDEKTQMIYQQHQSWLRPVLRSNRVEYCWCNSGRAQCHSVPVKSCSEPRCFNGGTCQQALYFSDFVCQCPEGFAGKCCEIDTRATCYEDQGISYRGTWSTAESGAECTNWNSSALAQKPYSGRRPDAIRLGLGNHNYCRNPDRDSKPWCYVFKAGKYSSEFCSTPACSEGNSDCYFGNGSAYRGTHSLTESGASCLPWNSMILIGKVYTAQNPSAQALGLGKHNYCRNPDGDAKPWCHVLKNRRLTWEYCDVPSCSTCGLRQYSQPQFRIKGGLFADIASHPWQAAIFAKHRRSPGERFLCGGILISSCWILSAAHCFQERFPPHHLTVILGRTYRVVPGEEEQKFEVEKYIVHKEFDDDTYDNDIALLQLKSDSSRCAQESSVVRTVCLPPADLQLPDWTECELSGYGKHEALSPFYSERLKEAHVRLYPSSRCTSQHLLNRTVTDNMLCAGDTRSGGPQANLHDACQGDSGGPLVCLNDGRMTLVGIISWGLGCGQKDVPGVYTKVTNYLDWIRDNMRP

Row | Compound | Enzyme Kass, Xa [1] [L/mol × 10^6] | Enzyme Kass, Trypsin [2] [L/mol × 10^6] | Enzyme Kass, t-PA [3] [L/mol × 10^6] | 2x Clotting time, TT [4] [ng/mL] | 2x Clotting time, APTT [5] | Enzyme Kass, Xa ([1]; HCl) [L/mol × 10^6] | Enzyme Kass, Trypsin ([2]; HCl) [L/mol × 10^6] | Enzyme Kass, t-PA ([3]; HCl) [L/mol × 10^6] | 2x Clotting time, TT ([4]; HCl) [ng/mL] | 2x Clotting time, APTT ([5]; HCl) [ng/mL]
1 | C[C@H]1C[C@@H](C(=O)N[C@H](C=O)CCCNC(=N)N)N(C(=O)[C@H]2CCCCN2)C1.Cl.Cl (relative stereo) [Example 1, D-homoprolyl-L-cis-4-methyl-prolyl-L-argininal dihydrochloride] | 1.4 | 390 | 0.077 | 60 | 510 ng/mL |  |  |  |  | 
2 | CC[C@H]1C[C@@H](C(=O)N[C@H](C=O)CCCNC(=N)N)N(C(=O)[C@H]2CCCCN2)C1.Cl.Cl (relative stereo) [Example 2, D-homoprolyl-L-cis-4-ethyl-prolyl-L-argininal dihydrochloride] | 1.7 | 520 | 0.097 | 51 | 460 ng/mL |  |  |  |  | 
3 | CCC[C@H]1C[C@@H](C(=O)N[C@H](C=O)CCCNC(=N)N)N(C(=O)[C@H]2CCCCN2)C1.Cl.Cl (relative stereo) [Example 3, D-hPro-Pro(4-cis-n-propyl)-ArgH.2 HCl] | 1.7 | 260 | 0.14 | 120 | 610 ng/mL |  |  |  |  | 
4 | Cl.Cl.N=C(N)NCCC[C@@H](C=O)NC(=O)[C@@H]1C[C@H](Cc2ccccc2)CN1C(=O)[C@H]1CCCCN1 (relative stereo) [Example 5, D-hPro-Pro(4-cis-benzyl)-ArgH.2 HCl] | 5.8 | 150 | 0.057 | 80 | 510 ng/mL |  |  |  |  | 
5 | Cl.Cl.N=C(N)NCCC[C@@H](C=O)NC(=O)[C@@H]1CC2CCCCC2N1C(=O)[C@H]1CCCCN1 (relative stereo) [Example 7, N-[(1-D-homoprolyl-cis-octahydro-1H-indol-2(S)-yl)carbonyl]-L-argininal dihydrochloride] | 1.6 | 150 | 0.053 | 37 | 450 ng/mL |  |  |  |  | 
6 | Cl.Cl.N=C(N)NCCC[C@H](C=O)NC(=O)[C@@H]1C[C@H](Oc2ccccc2)CN1C(=O)[C@H]1CCCCN1 (relative stereo) [Example 8, D-homoprolyl-L-cis-4-phenoxy-L-prolyl-D-argininal dihydrochloride] | 3.0 | 270 | 0.069 | 70 | 520 ng/mL |  |  |  |  | 
7 | Cl.Cl.Cl.N=C(N)NCCC[C@@H](C=O)NC(=O)[C@@H]1C[C@H](Oc2cccnc2)CN1C(=O)[C@H]1CCCCN1 (relative stereo) [Example 9, D-hPro-Pro(4-cis-(3-pyridyloxy))-ArgH.3 HCl] | 1.6 | 130 | 0.055 | 50 | 880 ng/mL |  |  |  |  | 
8 | Cl.Cl.Cl.N=C(N)NCCC[C@@H](C=O)NC(=O)[C@@H]1C[C@H](Oc2ccc(N)cc2)CN1C(=O)[C@H]1CCCCN1 (relative stereo) [Example 11, D-hPro-Pro(4-cis-(4-NH2-phenoxy))-ArgH.3 HCl] | 0.66 | 74 | 0.086 | 96 | 1,400 ng/mL |  |  |  |  | 
9 | Cl.Cl.N=C(N)NCCC[C@@H](C=O)NC(=O)[C@@H]1C[C@H](Oc2ccccc2)CN1C(=O)C1NCCC2CCCCC21 (relative stereo) [Example 15, D-1-Piq-Pro(4-cis-phenoxy)-ArgH.2 HCl] | 2.6 | 140 | 0.045 | 28 | 940 ng/mL |  |  |  |  | 
10 | CCS(=O)(=O)N[C@@H](C(=O)N1[C@H](C(=O)N[C@H](C=O)CCCNC(=N)N)C[C@@H]2CCCC[C@@H]21)c1ccccc1.Cl (relative stereo) [Example 22, EtSO2 -D-Phg-cis-Ohi-ArgH.HCl] | 11.8 | 312 | 0.085 | 9 | 332 ng/mL |  |  |  |  | 
11 | Cl.Cl.N=C(N)NCCCC(C=O)NC(=O)C1CC2CCCCC2N1C(=O)C1NCCC2CCCCC21 [Example 20, D-1-cis-Piq-cis-Ohi-ArgH.2 HCl] |  |  |  |  |  | 0.75 | 119 | 0.013 | 19 | 627
